Consider one sequence from patent US7645740B2, “Peptide sequence found in Laminin 5 for treating skin impairments” (Laboratoires d'Anjou Centre National de la Recherche …, priority 2004, dated 2010).

Experiment [1] concerns HBL100 cells. In words: Cell proliferation test (XTT), HBL100. Conditions: HBL100, peptide 0.5% and 1%, serum-free medium, 5th hour. The format is cell-based, human. The procedure:
HT1080 cells (A) and HBL100 cells (B) were seeded in 96-well plates at a rate of 10,000 cells per well. After 24 hours, the culture medium was removed and replaced with serum-free medium containing the peptide quantities given in the graphs and reagent XTT. The plates were then placed in the incubator at 37° C. and absorbance readings were taken at 1 h, 2 h, 3 h, 4 h and 5 h. Peptide-free controls were carried out on the same plate.
(§1) The effect of the peptide on cell proliferation was analysed with the aid of a calorimetric test (Cell Proliferation Kit XTT, Roche Diagnostics, Meylan, France) on the cells use for the cell adhesion test, i.e. HT1080, A431, HBL100 cells and normal human keratinocytes from young and elderly individuals.
(§2) The chemical reaction used in the test is based on the production of NADPH by living cells, leading to the reduction of yellow tetrazolium XTT salts to orange formazan salts. Absorbance was measured at 490 nm using an ELISA plate reader. Cells were seeded in 96-well plates at a rate of 10,000 cells per well (6 wells/condition) in KBM-2 culture medium. After 24 hours in culture at 37° C. with 5% CO2, the culture medium was removed and replaced with serum-free medium containing the peptide quantities given in the graphs and the test reagent. The plates were then placed in the incubator at 37° C. and absorbance readings were taken at 1 h, 2 h, 3 h, 4 h and 5 h. […]
On the technique in general: Tetrazolium assays rely on reduction of a dye to a coloured formazan, in cell work by metabolically active cells.

Experiment [2] deals with normal human keratinocytes. In words: Cell adhesion test to immobilized peptides, normal human keratinocytes. Type of experiment: cell-based. On the procedure:
Dose-dependent cell adhesion of normal human keratinocytes to various peptides 1, 2 and 3. The peptides were immobilized in 96-well plates at the concentrations given on the abscissa. 10^5 cells were deposited in each well and plates were incubated at 37° C. for 1 hour. After washing, attached cells were fixed and cell adhesion was measured as described in the methodology section.
Peptides 1, 2 and 3 were used for the cell adhesion experiments. A range of 7 decreasing concentrations (100 micrograms/ml, 50 micrograms/ml, 25 micrograms/ml, 12.5 micrograms/ml, 6.25 micrograms/ml, 3.125 micrograms/ml and 1.562 micrograms/ml) was made up by successive dilution in PBS (Phosphate Buffer Saline, KH2PO4 1.54 mM; Na2HPO4 1.42 mM; NaCl-131 mM) using a starting solution at a concentration of 1 mg/ml. These solutions were immediately distributed onto a 96-well culture plate (Greinher, Dutscher, Brumath, France) at a rate of 100 μl per well. Plates were then placed at +4° C. for 16 to 18 hours. The solutions were then removed by turning the plates and each well was saturated with a 1% PBS-BSA solution (bovine serum albumin). Three additional wells without the substrate underwent the same treatment and were used as blanks.
Epithelial cells were detached from the culture dishes using a trypsin/EDAT solution (0.05-0.02%) then suspended in DMEM medium without additives for the cell lines and in KBM-2 without additive for human keratinocytes. The number of seeded cells per well is given in the graphs (50,000 to 100,000 cells per well).
After cell seeding, the multi-well plates were placed in an incubator at 37° C. under 5% CO2. After incubation for 30 to 60 minutes, cells were observed under a phase contrast microscope in order to verify that the test was conducted correctly. The adhesion medium was then removed and each well was washed in a sterile PBS solution to remove non-adhering cells. The remaining cells, attached to the substrate, were then fixed using a solution of 1% glutaraldehyde in PBS for 15 minutes. The glutaraldehyde solution as removed and the cells were stained with a crystal violet solution diluted to 1% in distilled water for 30 minutes.
After rinsing in water several times, cells were permeabilized by means of a 0.02% triton solution for 15 minutes in order to solubilize the crystal violet. Absorbances were read at 570 nm using an ELISA plate reader (MR500, Dynatech, Guernsey, Channel Islands). Each experimental point was carried out in triplicate. The blank value represented the mean absorbance of 3 control wells (BSA). This was subtracted from each of the optical density values for the experimental points. We then calculated the mean for the three absorbance values for each of the triplicate samples.
The results are presented in the form of a graph with the absorbance values on the ordinate and the various substrate concentrations on the abscissa. Attached cells were photographed by phase contrast microscopy.
Freshly isolated normal human keratinocytes were used in a second experiment. As the basal keratinocytes of the epidermis are in direct contact with LN-5 in the skin, it was necessary to test their adhesion capacity to the peptide in question. Human keratinocytes were obtained from a foreskin biopsy (surgery waste, Pavillon T-Bis, Eduard Herriot Hospital). […]

For experiment [3], the system named is NHK-young. As to the kind of experiment: Cell proliferation test (XTT), NHK-young. Type of experiment: cell-based, human. Conditions: peptide 0.05% and 0.1%, 5th hour. On the procedure: NHK-10 years and NHK-71 years were seeded in 96-well plates at a rate of 10,000 cells per well. After 24 hours, the culture medium was removed and replaced with serum-free medium containing the peptide quantities given in the graphs and reagent XTT. The plates were then placed in the incubator at 37° C. and absorbance readings were taken at 1 h, 2 h, 3 h, 4 h and 5 h. Peptide-free controls were carried out on the same plate.
as §1, §2

Where only a bound is given, the exact number is not on record here.

Regarding “TALRIRATYGEY (Human laminin 5) [Peptide 1]”, the “mean increase in cell proliferation compared to the control” value in experiment [1] was found to be 8%. In experiment [2] (0 to 10 micrograms immobilized peptide, 10^5 cells per well, 1 hour 37° C., absorbance 570 nm), the “cell adhesion to immobilized peptide” value is “effect also occurred”. Also, in experiment [2] (FIG. 5), the “immobilized peptide quantity at which adhesion occurred” value is 0.15 micrograms and the “immobilized peptide quantity at which maximum adhesion was achieved” value worked out at 0.62 micrograms. Further, the “mean increase in proliferation compared to the control” value in experiment [3] was no more than 7%.
